Laboratory results: patent US20250255867A1 (Kadmon Corporation, LLC, priority 2022, published 2025)

Settings: Cohort 1 200 mg QD

CC(C)NC(=O)COc1cccc(-c2nc(Nc3ccc4[nH]ncc4c3)c3ccccc3n2)c1 [Belumosudil, 2-{3-[4-(1H-indazol-5-ylamino)-2-quinazolinyl]phenoxy}-N-(propan-2-yl) acetamide]
Overdose: Affected/At Risk (%): (5.88%) | Pain in extremity: # Events: 2 | Pain in extremity: Affected/At Risk: 2/17 | Pain in extremity: Affected/At Risk (%): (11.76%) | Pain: # Events: 3 | Pain: Affected/At Risk: 3/17 | Pain: Affected/At Risk (%): (17.65%) | Palpitations: # Events: 1 | Palpitations: Affected/At Risk: 1/17 | Palpitations: Affected/At Risk (%): (5.88%) | Paraesthesia: # Events: 0 | Paraesthesia: Affected/At Risk: 0/17 | Paraesthesia: Affected/At Risk (%): (0%) | Participants with TEAE: 17 (100%) participants | Participants with TESAE: 5 (29%) participants | Pericardial effusion: # Events: 1 | Pericardial effusion: Affected/At Risk: 1/17 | Pericardial effusion: Affected/At Risk (%): (5.88%) | Peripheral coldness: # Events: 1 | Peripheral coldness: Affected/At Risk: 1/17 | Peripheral coldness: Affected/At Risk (%): (5.88%) | Peripheral sensory neuropathy: # Events: 0 | Peripheral sensory neuropathy: Affected/At Risk: 0/17 | Peripheral sensory neuropathy: Affected/At Risk (%): (0%) | Phlebitis: # Events: 0 | Phlebitis: Affected/At Risk: 0/17 | Phlebitis: Affected/At Risk (%): (0%) | Photophobia: # Events: 0 | Photophobia: Affected/At Risk: 0/17 | Photophobia: Affected/At Risk (%): (0%) | Platelet count decreased: # Events: 3 | Platelet count decreased: Affected/At Risk: 1/17 | Platelet count decreased: Affected/At Risk (%): (5.88%) | Pleural effusion: # Events: 1 | Pleural effusion: Affected/At Risk: 1/17 | Pleural effusion: Affected/At Risk (%): (5.88%) | Pneumonia respiratory syncytial viral: # Events: 0 | Pneumonia respiratory syncytial viral: Affected/At Risk: 0/17 | Pneumonia respiratory syncytial viral: Affected/At Risk (%): (0%) | Pneumonia: # Events: 2 | Pneumonia: Affected/At Risk: 1/17 | Pneumonia: Affected/At Risk (%): (5.88%) | Pollakiuria: # Events: 1 | Pollakiuria: Affected/At Risk: 1/17 | Pollakiuria: Affected/At Risk (%): (5.88%) | Presyncope: # Events: 0 | Presyncope: Affected/At Risk: 0/17 | Presyncope: Affected/At Risk (%): (0%) | Productive cough: # Events: 2 | Productive cough: Affected/At Risk: 2/17 | Productive cough: Affected/At Risk (%): (11.76%) | Proteinuria: # Events: 2 | Proteinuria: Affected/At Risk: 2/17 | Proteinuria: Affected/At Risk (%): (11.76%) | Pruritus: # Events: 1 | Pruritus: Affected/At Risk: 1/17 | Pruritus: Affected/At Risk (%): (5.88%) | Pseudomonas infection: # Events: 1 | Pseudomonas infection: Affected/At Risk: 1/17 | Pseudomonas infection: Affected/At Risk (%): (5.88%) | Pulmonary mass: # Events: 0 | Pulmonary mass: Affected/At Risk: 0/17 | Pulmonary mass: Affected/At Risk (%): (0%) | Pyrexia: # Events: 3 | Pyrexia: Affected/At Risk: 1/17 | Pyrexia: Affected/At Risk (%): (5.88%) | Rash erythematous: # Events: 0 | Rash erythematous: Affected/At Risk: 0/17 | Rash erythematous: Affected/At Risk (%): (0%) | Rash maculo-papular: # Events: 2 | Rash maculo-papular: Affected/At Risk: 2/17 | Rash maculo-papular: Affected/At Risk (%): (11.76%) | Rash pustular: # Events: 0 | Rash pustular: Affected/At Risk: 0/17 | Rash pustular: Affected/At Risk (%): (0%) | Rash: # Events: 2 | Rash: Affected/At Risk: 1/17 | Rash: Affected/At Risk (%): (5.88%) | Red blood cells urine positive: # Events: 0 | Red blood cells urine positive: Affected/At Risk: 0/17 | Red blood cells urine positive: Affected/At Risk (%): (0%) | Renal failure: # Events: 0 | Renal failure: Affected/At Risk: 0/17 | Renal failure: Affected/At Risk (%): (0%) | Respiratory syncytial virus infection: # Events: 0 | Respiratory syncytial virus infection: Affected/At Risk: 0/17 | Respiratory syncytial virus infection: Affected/At Risk (%): (0%) | Respiratory tract infection fungal: # Events: 1 | Respiratory tract infection fungal: Affected/At Risk: 1/17 | Respiratory tract infection fungal: Affected/At Risk (%): (5.88%) | Respiratory tract infection: # Events: 1 | Respiratory tract infection: Affected/At Risk: 1/17 | Respiratory tract infection: Affected/At Risk (%): (5.88%) | Restless legs syndrome: # Events: 0 | Restless legs syndrome: Affected/At Risk: 0/17 | Restless legs syndrome: Affected/At Risk (%): (0%) | Rosacea: # Events: 0 | Rosacea: Affected/At Risk: 0/17 | Rosacea: Affected/At Risk (%): (0%) | SAE Abdominal wall haematoma, # events: 0 | SAE Abdominal wall haematoma, affected/at risk: 0/17 | SAE Acute kidney injury, # events: 0 | SAE Acute kidney injury, affected/at risk: 0/17 | SAE Acute lymphocytic leukaemia recurrent, # events: 0 | SAE Acute lymphocytic leukaemia recurrent, affected/at risk: 0/17 | SAE Acute respiratory failure, # events: 1 | SAE Acute respiratory failure, affected/at risk: 1/17 | SAE Anaphylactic reaction, # events: 1 | SAE Anaphylactic reaction, affected/at risk: 1/17 | SAE Bacteraemia, # events: 0 | SAE Bacteraemia, affected/at risk: 0/17 | SAE Cardiac arrest, # events: 0 | SAE Cardiac arrest, affected/at risk: 0/17 | SAE Cellulitis, # events: 0 | SAE Cellulitis, affected/at risk: 0/17 | SAE Chronic graft versus host disease in skin, # events: 0 | SAE Chronic graft versus host disease in skin, affected/at risk: 0/17 | SAE Citrobacter infection, # events: 0 | SAE Citrobacter infection, affected/at risk: 0/17 | SAE Dyspnoea, # events: 0 | SAE Dyspnoea, affected/at risk: 0/17 | SAE Embolism, # events: 0 | SAE Embolism, affected/at risk: 0/17 | SAE Febrile neutropenia, # events: 0 | SAE Febrile neutropenia, affected/at risk: 0/17 | SAE Graft versus host disease in lung, # events: 0 | SAE Graft versus host disease in lung, affected/at risk: 0/17 | SAE Hypoxia, # events: 0 | SAE Hypoxia, affected/at risk: 0/17 | SAE Influenza A virus test positive, # events: 1 | SAE Influenza A virus test positive, affected/at risk: 1/17 | SAE Influenza like illness, # events: 0 | SAE Influenza like illness, affected/at risk: 0/17 | SAE Lacunar infarction, # events: 0 | SAE Lacunar infarction, affected/at risk: 0/17 | SAE Leukaemia recurrent, # events: 0 | SAE Leukaemia recurrent, affected/at risk: 0/17
